Assay results reported in ChEMBL document CHEMBL1131475, “Discovery of ritonavir, a potent inhibitor of HIV protease with high oral bioavailability and clinical efficacy” (J Med Chem, 1998).

Columns and labels:
[1] = in vivo; settings: rat, plasma, po
[2] = in vivo; settings: rat, plasma, po; remark: listed apart in the source
[3] = in vivo; settings: rat, plasma, po, 10 mg/kg
[4] = in vivo; settings: rat, plasma, iv
[5] = Oral bioavailability in rat; type: ADME, organism-based; settings: in vivo

Row | Compound | AUC [1] [ng·h/mL] | Tmax [2] [min] | Cmax [3] [nM] | half-life [4] [min] | bioavailability [5] [%] | F [5] [%]
1 | Cc1ccc(CN(C)C(=O)NC(C(=O)N[C@@H](Cc2ccccc2)[C@@H](O)C[C@H](Cc2ccccc2)NC(=O)OCc2cccnc2)C(C)C)cn1 (stereo partly drawn) | 290 | 6 | 1220 | 26.4 | 6.7 | 
2 | CCc1nc(COC(=O)NC(C(=O)N[C@@H](Cc2ccccc2)[C@@H](O)C[C@H](Cc2ccccc2)NC(=O)OCc2cccnc2)C(C)C)cs1 (stereo partly drawn) | 420 | 6 | 990 | 29.4 | 9.5 | 
3 | COc1ccc(COC(=O)NC(C(=O)N[C@@H](Cc2ccccc2)C[C@H](O)[C@H](Cc2ccccc2)NC(=O)OCc2cccnc2)C(C)C)nc1 (stereo partly drawn) | 50 | 6 | 290 | 15 | 1.3 | 
4 | COc1ccc(COC(=O)NC(C(=O)N[C@@H](Cc2ccccc2)C[C@H](O)[C@H](Cc2ccccc2)NC(=O)OCc2cccnc2)C(C)C)cn1 (stereo partly drawn) | 30 | 6 | 190 | 19.8 | 0.7 | 
5 | Cc1ncc(COC(=O)NC(C(=O)N[C@@H](Cc2ccccc2)C[C@H](O)[C@H](Cc2ccccc2)NC(=O)OCc2cccnc2)C(C)C)nc1C (stereo partly drawn) | 480 | 6 | 2060 | 25.8 | 10 | 
6 | CC(C)C(NC(=O)OCc1csc(N2CCOCC2)n1)C(=O)N[C@@H](Cc1ccccc1)C[C@H](O)[C@H](Cc1ccccc1)NC(=O)OCc1cccnc1 (stereo partly drawn) |  |  |  | 19.2 | 0 | 
7 | COCc1ncc(COC(=O)NC(C(=O)N[C@@H](Cc2ccccc2)[C@@H](O)C[C@H](Cc2ccccc2)NC(=O)OCc2cccnc2)C(C)C)s1 (stereo partly drawn) | 420 | 9 | 380 | 22.2 | 11 | 
8 | CCc1cccc(COC(=O)NC(C(=O)N[C@@H](Cc2ccccc2)[C@@H](O)C[C@H](Cc2ccccc2)NC(=O)OCc2cccnc2)C(C)C)n1 (stereo partly drawn) | 810 | 15 | 1260 | 44.4 | 16 | 
9 | Cc1ncsc1CCOC(=O)NC(C(=O)N[C@@H](Cc1ccccc1)[C@@H](O)C[C@H](Cc1ccccc1)NC(=O)OCc1cccnc1)C(C)C (stereo partly drawn) | 360 | 27 | 410 | 27 | 9.2 | 
10 | Cc1cccc(COC(=O)NC(C(=O)N[C@@H](Cc2ccccc2)[C@@H](O)C[C@H](Cc2ccccc2)NC(=O)OCc2cccnc2)C(C)C)n1 (stereo partly drawn) | 610 | 19.8 | 1150 | 44.4 | 7.5 | 
11 | Cc1cncc(COC(=O)NC(C(=O)N[C@@H](Cc2ccccc2)C[C@H](O)[C@H](Cc2ccccc2)NC(=O)OCc2cccnc2)C(C)C)n1 (stereo partly drawn) | 640 | 6 | 1330 | 69 | 10 | 
12 | Cc1cncc(COC(=O)NC(C(=O)N[C@@H](Cc2ccccc2)C[C@H](O)[C@H](Cc2ccccc2)NC(=O)OCc2cccnc2)C(C)C)c1 (stereo partly drawn) | 70 | 9 | 330 | 22.8 | 1.6 | 
13 | COc1cncc(COC(=O)NC(C(=O)N[C@@H](Cc2ccccc2)C[C@H](O)[C@H](Cc2ccccc2)NC(=O)OCc2cccnc2)C(C)C)c1 (stereo partly drawn) | 30 | 6 | 200 | 48 | 0.9 | 
14 | Cc1ccc(COC(=O)NC(C(=O)N[C@@H](Cc2ccccc2)[C@@H](O)C[C@H](Cc2ccccc2)NC(=O)OCc2cccnc2)C(C)C)cn1 (stereo partly drawn) | 240 | 6 | 450 | 34.2 | 6.3 | 
15 | CC(C)C(NC(=O)OCc1ccccn1)C(=O)N[C@@H](Cc1ccccc1)[C@@H](O)C[C@H](Cc1ccccc1)NC(=O)OCc1cccnc1 (stereo partly drawn) | 1980 | 15 | 4110 | 114 | 26 | 
16 | CCc1nc(COC(=O)NC(C(=O)N[C@@H](Cc2ccccc2)C[C@H](O)[C@H](Cc2ccccc2)NC(=O)OCc2cccnc2)C(C)C)cs1 (stereo partly drawn) | 330 | 9 | 1300 | 45 | 7.4 | 
17 | Cc1cccc(COC(=O)NC(C(=O)N[C@@H](Cc2ccccc2)[C@@H](O)C[C@H](Cc2ccccc2)NC(=O)OCc2ccoc2)C(C)C)n1 (stereo partly drawn) |  |  |  | 13.2 | 0 | 

The next lines start with the values.

Row | AUC [1] [ng·h/mL] | Tmax [2] [min] | Cmax [3] [nM] | half-life [4] [min] | bioavailability [5] [%] | F [5] [%] | Compound
18 | 400 | 16.8 | 650 | 20.4 | 9.4 |  | CC(C)c1nc(CN(C(=O)NCCC(=O)N[C@@H](Cc2ccccc2)[C@@H](O)C[C@H](Cc2ccccc2)NC(=O)OCc2cncs2)C2CC2)cs1
19 | 950 | 15 | 2420 | 13.2 | 16 |  | Cc1cccc(CN(C)C(=O)NC(C(=O)N[C@@H](Cc2ccccc2)[C@@H](O)C[C@H](Cc2ccccc2)NC(=O)OCc2cccnc2)C(C)C)n1 (stereo partly drawn)
20 | 2860 | 15 | 3600 | 240 | 23 |  | CC(NC(=O)N(C)Cc1coc(C(C)C)n1)C(=O)N[C@@H](Cc1ccccc1)C[C@H](O)[C@H](Cc1ccccc1)NC(=O)OCc1cncs1 (stereo partly drawn)
21 | 4240 | 22.2 | 2040 | 73.8 | 47 |  | CC(C)C(NC(=O)OCc1ccccn1)C(=O)N[C@@H](Cc1ccccc1)C[C@H](O)[C@H](Cc1ccccc1)NC(=O)OCc1cncs1 (stereo partly drawn)
22 | 290 | 6 | 640 | 40.2 | 5.2 |  | CC(C)C(NC(=O)N(C)Cc1cscn1)C(=O)N[C@@H](Cc1ccccc1)C[C@H](O)[C@H](Cc1ccccc1)NC(=O)OCc1cccnc1 (stereo partly drawn)
23 | 1230 | 24 | 1090 | 31.8 | 19 |  | CC(NC(=O)OCc1csc(C(C)C)n1)C(=O)N[C@@H](Cc1ccccc1)C[C@H](O)[C@H](Cc1ccccc1)NC(=O)OCc1cncs1 (stereo partly drawn)
24 | 1850 | 9 | 2050 | 15.6 | 35 |  | CC(C)c1nc(CN(C)C(=O)NC(C(=O)N[C@@H](Cc2ccccc2)C[C@H](O)[C@H](Cc2ccccc2)NC(=O)OCc2cnco2)C(C)C)co1 (stereo partly drawn)
25 | 10700 | 138 | 3980 | 31.8 |  | 175 | CC(C)C(NC(=O)N(C)Cc1csc(C2CC2)n1)C(=O)N[C@@H](Cc1ccccc1)[C@@H](O)C[C@H](Cc1ccccc1)NC(=O)OCc1cncs1 (stereo partly drawn)
26 | 9370 | 60 | 5120 |  |  | 167 | CCc1nc(CN(C)C(=O)NC(C(=O)N[C@@H](Cc2ccccc2)[C@@H](O)C[C@H](Cc2ccccc2)NC(=O)OCc2cncs2)C(C)C)cs1 (stereo partly drawn)
27 | 220 | 15 | 470 | 40.8 | 3 |  | CC(C)c1nc(COC(=O)NC(C(=O)N[C@@H](Cc2ccccc2)[C@@H](O)C[C@H](Cc2ccccc2)NC(=O)OCc2cccnc2)C(C)C)cs1 (stereo partly drawn)
28 | 290 | 6 | 1050 | 34.2 | 5.7 |  | COc1ccc(CN(C)C(=O)NC(C(=O)N[C@@H](Cc2ccccc2)C[C@H](O)[C@H](Cc2ccccc2)NC(=O)OCc2cccnc2)C(C)C)nc1 (stereo partly drawn)
29 | 20 | 6 | 150 | 27.6 | 0.7 |  | CC(C)c1ncc(COC(=O)NC(C(=O)N[C@@H](Cc2ccccc2)C[C@H](O)[C@H](Cc2ccccc2)NC(=O)OCc2cccnc2)C(C)C)s1 (stereo partly drawn)
30 | 310 | 6 | 690 | 31.8 | 9.7 |  | Cc1cncc(CN(C)C(=O)NC(C(=O)N[C@@H](Cc2ccccc2)C[C@H](O)[C@H](Cc2ccccc2)NC(=O)OCc2cccnc2)C(C)C)c1 (stereo partly drawn)
31 | 50 | 9 | 180 | 16.8 | 0.4 |  | COc1cncc(CN(C)C(=O)NC(C(=O)N[C@@H](Cc2ccccc2)C[C@H](O)[C@H](Cc2ccccc2)NC(=O)OCc2cccnc2)C(C)C)c1 (stereo partly drawn)
32 | 320 | 6 | 1750 | 13.2 | 10 |  | COc1ccc(CN(C)C(=O)NC(C(=O)N[C@@H](Cc2ccccc2)C[C@H](O)[C@H](Cc2ccccc2)NC(=O)OCc2cccnc2)C(C)C)cn1 (stereo partly drawn)
33 | 730 | 9 | 1530 | 31.2 | 23 |  | CCc1cccc(CN(C)C(=O)NC(C(=O)N[C@@H](Cc2ccccc2)[C@@H](O)C[C@H](Cc2ccccc2)NC(=O)OCc2cccnc2)C(C)C)n1 (stereo partly drawn)
34 | 530 | 19.8 | 980 | 61.8 | 12 |  | CC(C)c1nc(CN(C)C(=O)NC(C(=O)N[C@@H](Cc2ccccc2)C[C@H](O)[C@H](Cc2ccccc2)NC(=O)OCc2cccnc2)C(C)C)cs1 (stereo partly drawn)
35 | 1660 | 22.2 | 3130 | 84 | 35 |  | CC(C)C(NC(=O)N(C)Cc1cscn1)C(=O)N[C@@H](Cc1ccccc1)[C@@H](O)C[C@H](Cc1ccccc1)NC(=O)OCc1cccnc1 (stereo partly drawn)
36 | 90 | 6 | 290 | 17.4 | 3.3 |  | CC(C)c1nc(CN(C)C(=O)NC(C(=O)N[C@@H](Cc2ccccc2)[C@@H](O)C[C@H](Cc2ccccc2)NC(=O)OCc2cccnc2)C(C)C)co1 (stereo partly drawn)
37 | 1240 | 30 | 2290 | 33.6 | 16 |  | COCc1nc(CN(C)C(=O)NC(C(=O)N[C@@H](Cc2ccccc2)[C@@H](O)C[C@H](Cc2ccccc2)NC(=O)OCc2cccnc2)C(C)C)cs1 (stereo partly drawn)
38 | 1080 | 15 | 2010 | 89.4 | 15 |  | Cc1nc(CN(C)C(=O)NC(C(=O)N[C@@H](Cc2ccccc2)[C@@H](O)C[C@H](Cc2ccccc2)NC(=O)OCc2cccnc2)C(C)C)cs1 (stereo partly drawn)
